Measurements published in ChEMBL document CHEMBL3576778, “Structure-Activity Relationship Studies of a Series of Semisynthetic Lipopeptides Leading to the Discovery of Surotomycin, a Novel Cyclic Lipopeptide Being Developed for the Treatment of Clostridium difficile-Associated Diarrhea” (J Med Chem, 2015).
In brackets after ≈: the same amount, converted by molar mass.

Legend:
Type in all cases: functional
[1] = test system: Clostridioides difficile; test: Antimicrobial activity against daptomycin-resistant Clostridium difficile NAP1 incubated anaerobically at 37 degC for 48 hrs by agar dilution method; conditions: NAP1, 48 h
[2] = test system: Staphylococcus aureus; test: Antimicrobial activity against daptomycin-susceptible Staphylococcus aureus ATCC 29213 incubated anaerobically at 37 degC for 48 hrs by agar dilution method; conditions: ATCC 29213, 48 h
[3] = test system: Enterococcus faecium; test: Antimicrobial activity against daptomycin-resistant Enterococcus faecium ATCC 6569 incubated anaerobically at 37 degC for 48 hrs by agar dilution method; conditions: ATCC 6569, 48 h
[4] = test system: Enterococcus faecalis; test: Antimicrobial activity against daptomycin-resistant Enterococcus faecalis ATCC 49452 incubated anaerobically at 37 degC for 48 hrs by agar dilution method; conditions: ATCC 49452, 48 h

CCCCCCOc1ccc(-c2csc(C(=O)N[C@@H](Cc3c[nH]c4ccccc34)C(=O)N[C@@H](CC(N)=O)C(=O)N[C@@H](CC(=O)O)C(=O)N[C@@H]3C(=O)NCC(=O)N[C@@H](CCCN)C(=O)NC(CC(=O)O)C(=O)N[C@H](C)C(=O)N[C@@H](CC(=O)O)C(=O)NCC(=O)N[C@H](CO)C(=O)N[C@@H]([C@@H](C)CC(=O)O)C(=O)N[C@@H](CC(=O)c4ccccc4N)C(=O)O[C@@H]3C)c2)cc1 (single isomer, unassigned)
MIC [1]: 4 µg/mL (≈ 2.28 µM)
MIC [2]: 0.5 µg/mL (≈ 0.285 µM)
MIC [3]: 2 µg/mL (≈ 1.14 µM)
MIC [4]: 8 µg/mL (≈ 4.56 µM)

CCCCCCOc1ccc(-c2ccc(C(=O)N[C@@H](Cc3c[nH]c4ccccc34)C(=O)N[C@@H](CC(N)=O)C(=O)N[C@@H](CC(=O)O)C(=O)N[C@@H]3C(=O)NCC(=O)N[C@@H](CCCN)C(=O)N[C@H](CC(=O)O)C(=O)N[C@H](C)C(=O)N[C@@H](CC(=O)O)C(=O)NCC(=O)N[C@H](CO)C(=O)N[C@@H]([C@@H](C)CC(=O)O)C(=O)N[C@@H](CC(=O)c4ccccc4N)C(=O)O[C@@H]3C)cc2)cc1
MIC [1]: 2 µg/mL (≈ 1.14 µM)
MIC [2]: 0.5 µg/mL (≈ 0.286 µM)
MIC [3]: 1 µg/mL (≈ 0.572 µM)
MIC [4]: 2 µg/mL (≈ 1.14 µM)

CCCCCCCOc1ccc(-c2ccc(C(=O)N[C@@H](Cc3c[nH]c4ccccc34)C(=O)N[C@@H](CC(N)=O)C(=O)N[C@@H](CC(=O)O)C(=O)N[C@@H]3C(=O)NCC(=O)N[C@@H](CCCN)C(=O)N[C@H](CC(=O)O)C(=O)N[C@H](C)C(=O)N[C@@H](CC(=O)O)C(=O)NCC(=O)N[C@H](CO)C(=O)N[C@@H]([C@@H](C)CC(=O)O)C(=O)N[C@@H](CC(=O)c4ccccc4N)C(=O)O[C@@H]3C)cc2)cc1
MIC [1]: 2 µg/mL (≈ 1.14 µM)
MIC [2]: 0.25 µg/mL (≈ 0.142 µM)
MIC [3]: 1 µg/mL (≈ 0.568 µM)
MIC [4]: 4 µg/mL (≈ 2.27 µM)

CCCCCCCCCCCCC(=O)N[C@@H](Cc1c[nH]c2ccccc12)C(=O)N[C@@H](CC(N)=O)C(=O)N[C@@H](CC(=O)O)C(=O)N[C@@H]1C(=O)NCC(=O)N[C@@H](CCCN)C(=O)NC(CC(=O)O)C(=O)N[C@H](C)C(=O)N[C@@H](CC(=O)O)C(=O)NCC(=O)N[C@H](CO)C(=O)N[C@@H]([C@@H](C)CC(=O)O)C(=O)N[C@@H](CC(=O)c2ccccc2N)C(=O)O[C@@H]1C (single isomer, unassigned)
MIC [1]: 8 µg/mL (≈ 4.81 µM)
MIC [2]: 0.5 µg/mL (≈ 0.301 µM)
MIC [3]: 8 µg/mL (≈ 4.81 µM)
MIC [4]: 8 µg/mL (≈ 4.81 µM)

CCCOc1ccc(-c2ccc(C(=O)N[C@@H](Cc3c[nH]c4ccccc34)C(=O)N[C@@H](CC(N)=O)C(=O)N[C@@H](CC(=O)O)C(=O)N[C@@H]3C(=O)NCC(=O)N[C@@H](CCCN)C(=O)N[C@H](CC(=O)O)C(=O)N[C@H](C)C(=O)N[C@@H](CC(=O)O)C(=O)NCC(=O)N[C@H](CO)C(=O)N[C@@H]([C@@H](C)CC(=O)O)C(=O)N[C@@H](CC(=O)c4ccccc4N)C(=O)O[C@@H]3C)cc2)cc1
MIC [1]: 4 µg/mL (≈ 2.35 µM)
MIC [2]: 0.5 µg/mL (≈ 0.293 µM)
MIC [3]: 32 µg/mL (≈ 18.8 µM)
MIC [4]: > 32 µg/mL

CCCCCCCCCCC(=O)N[C@@H](Cc1c[nH]c2ccccc12)C(=O)N[C@@H](CC(N)=O)C(=O)N[C@@H](CC(=O)O)C(=O)N[C@@H]1C(=O)NCC(=O)N[C@@H](CCCN)C(=O)NC(CC(=O)O)C(=O)N[C@H](C)C(=O)N[C@@H](CC(=O)O)C(=O)NCC(=O)N[C@H](CO)C(=O)N[C@@H]([C@@H](C)CC(=O)O)C(=O)N[C@@H](CC(=O)c2ccccc2N)C(=O)O[C@@H]1C (single isomer, unassigned)
MIC [1]: 4 µg/mL (≈ 2.45 µM)
MIC [2]: 2 µg/mL (≈ 1.22 µM)
MIC [3]: > 32 µg/mL
MIC [4]: 32 µg/mL (≈ 19.6 µM)

CCCCCCSc1ccc(-c2csc(C(=O)N[C@@H](Cc3c[nH]c4ccccc34)C(=O)N[C@@H](CC(N)=O)C(=O)N[C@@H](CC(=O)O)C(=O)N[C@@H]3C(=O)NCC(=O)N[C@@H](CCCN)C(=O)N[C@H](CC(=O)O)C(=O)N[C@H](C)C(=O)N[C@@H](CC(=O)O)C(=O)NCC(=O)N[C@H](CO)C(=O)N[C@@H]([C@@H](C)CC(=O)O)C(=O)N[C@@H](CC(=O)c4ccccc4N)C(=O)O[C@@H]3C)c2)cc1
MIC [1]: 8 µg/mL (≈ 4.52 µM)
MIC [2]: 8 µg/mL (≈ 4.52 µM)
MIC [3]: 16 µg/mL (≈ 9.05 µM)
MIC [4]: > 32 µg/mL

C[C@H]1NC(=O)C(CC(=O)O)NC(=O)[C@H](CCCN)NC(=O)CNC(=O)[C@@H](NC(=O)[C@H](CC(=O)O)NC(=O)[C@H](CC(N)=O)NC(=O)[C@H](Cc2c[nH]c3ccccc23)NC(=O)CCCCCCC2CCCCC2)[C@@H](C)OC(=O)[C@H](CC(=O)c2ccccc2N)NC(=O)[C@H]([C@@H](C)CC(=O)O)NC(=O)[C@@H](CO)NC(=O)CNC(=O)[C@H](CC(=O)O)NC1=O (single isomer, unassigned)
MIC [1]: 1 µg/mL (≈ 0.602 µM)
MIC [2]: 0.5 µg/mL (≈ 0.301 µM)
MIC [3]: 8 µg/mL (≈ 4.82 µM)
MIC [4]: 16 µg/mL (≈ 9.63 µM)

CCCCCOc1ccc(-c2ccc(C(=O)N[C@@H](Cc3c[nH]c4ccccc34)C(=O)N[C@@H](CC(N)=O)C(=O)N[C@@H](CC(=O)O)C(=O)N[C@@H]3C(=O)NCC(=O)N[C@@H](CCCN)C(=O)N[C@H](CC(=O)O)C(=O)N[C@H](C)C(=O)N[C@@H](CC(=O)O)C(=O)NCC(=O)N[C@H](CO)C(=O)N[C@@H]([C@@H](C)CC(=O)O)C(=O)N[C@@H](CC(=O)c4ccccc4N)C(=O)O[C@@H]3C)cc2)cc1
MIC [1]: 2 µg/mL (≈ 1.15 µM)
MIC [2]: 0.25 µg/mL (≈ 0.144 µM)
MIC [3]: 2 µg/mL (≈ 1.15 µM)
MIC [4]: 4 µg/mL (≈ 2.31 µM)
